Broadly, the half-life is how long it takes for the measured level to halve. Low readings indicate fast loss, high ones slow loss.

The source of these data is PubChem BioAssay AID1508591.

The conditions of the data set: rat; liver microsomes; pH 7.4; 15.0 min; 1.0 µM.
As for `Cc1ccc(S(=O)(=O)Nc2cccnc2C(=O)Nc2nc(-c3ccccc3)cs2)cc1`, the half-life came out at 4.2 min.

Turning to `Oc1ccc(Nc2nc(-c3ccncc3)nc3ccccc23)cc1F`, the half-life is 28 min.

The molecule `Cc1cc(C)nc(NS(=O)(=O)c2ccc(NC(=S)NC(=O)COc3ccc(Br)cc3Cl)cc2)n1` gave a half-life of more than 30 min.

In turn, `CN(C)C(=O)c1cc(-c2ccc(S(C)(=O)=O)cc2)c2cnn(C)c2n1` gave a half-life of more than 30 min.

With `CC(=O)Nc1ccc(C(=O)Nc2ccc3c(c2)N(C2CCCC2)C(=O)c2ccccc2S3)cc1`, the half-life came to 2.21 min.

For `CNc1ccc(Br)cc(C(=O)/C=C/c2ccc(OC)cc2OC)c1=O`, the half-life is 5.16 min.

`Cc1ccc(S(=O)(=O)Nc2ccccc2C(=O)Nc2ccc(-c3ccccc3)cc2)cc1` showed a half-life of 7.3 min. This half-life and that of the molecule before are within 1.5-fold of each other.

`CCOC(=O)c1c(C)c(-c2ccccc2)n(CC(=O)NCc2ccccc2)c1C` registered a half-life of 2.28 min.

Molecule `CC(=O)c1ccc(N[S+](=O)([O-])c2cccc(NC(=O)c3[nH]c(C)c(C(C)=O)c3C)c2)cc1` had a half-life of 21 min. This half-life lies about 9.2-fold higher than the previous one.

Turning to `Cc1ccc(CNc2nc(-c3ccccc3C(F)(F)F)nc3ccccc23)s1`, the half-life came to 1.7 min.

For `O=C(CCCc1ccc2cccnc2n1)NCc1cc(-c2ccc(F)c(C(F)(F)F)c2)no1`, the half-life worked out at 9.4 min.

`NC(=O)C(=O)N/N=C/c1ccc([N+](=O)[O-])o1`: the half-life was more than 30 min.

Regarding `Cc1cnc(N2CCC(C(N)=O)CC2)nc1-c1cccc(N(C)C)c1`, the half-life is 8.45 min.

As to `CCOC(=O)CCNc1cc(N2CCc3ccccc3CC2)nc(-c2cccnc2)n1`, the half-life came to 2.31 min.

With `CNC(=O)C1CCN(C(=O)c2ccc(-c3ncc4cnc(-c5ccccc5)cn34)cc2)CC1`, the half-life was more than 30 min.

The molecule `CN(C)CCNC(=O)c1nc(-c2ccccc2)cc2[nH]ccc12` showed a half-life of 1.92 min.

In turn, `CCNC(=O)C[C@@H]1N=C(c2ccc(Cl)cc2)c2cc(OC)ccc2-n2c(C)nnc21` gave a half-life of more than 30 min.

As for `COc1ccccc1Nc1ccnc(N2CCN(C(=O)c3ccccc3Cl)CC2)n1`, the half-life is 7.9 min.

`CC(=O)c1c(C)[nH]c(C(=O)Nc2ccc(Cl)cc2)c1C` returned a half-life of more than 30 min.

With `COc1ccc2[nH]c3c(C)c4ccncc4c(C)c3c2c1`, the half-life was more than 30 min.

With `Cc1ccc(-c2csc(CCn3nc(C)c4c(C(F)(F)F)cc(=O)[nH]c43)n2)cc1`, the half-life was 4.7 min.

`O=C(Nc1ccc(Cl)cc1)C(NS(=O)(=O)c1cccs1)c1ccccc1` (stereo not given): the half-life was found to be 5.38 min. This half-life and that of the molecule before are within 1.5-fold of each other.

In turn, `CC(=O)OCCN1C(=O)c2c(C)nc3ccc(S(=O)(=O)N4CCOCC4)cc3c2C1=O` came in with a half-life of 2.05 min.

Molecule `Cc1ccc(C(=O)Nc2ccc(CN3CCN(C)CC3)c(C(F)(F)F)c2)cc1C#Cc1cnc2cccnn12` showed a half-life of more than 30 min.

In turn, `O=C(Nc1ccc(C(=O)N2CCCC2)cc1)c1ccccc1F` registered a half-life of more than 30 min.

The molecule `O=C(Nc1ccc(OC(F)(F)F)cc1)c1sccc1NCc1ccnc2ccccc12` yielded a half-life of 18.7 min.

For `O=C(O)c1ccc(-c2c[nH]c3ncc(-c4ccccc4)cc23)cc1C1CCCC1`, the half-life was more than 30 min.

As for `O=C(c1ccc2c(c1)OCO2)N1CCC(Cc2nc(-c3cnccn3)no2)CC1`, the half-life is more than 30 min.

Regarding `Cc1cc(C)nc(NC(=S)N2CCN(c3ccc(C(F)(F)F)cc3Cl)CC2)c1`, the half-life was more than 30 min.

On to `Cc1ccc(S(=O)(=O)Nc2ccc(Cl)c(C(=O)Nc3nc(-c4ccccc4)cs3)c2)cc1`, for which the half-life was found to be 18 min.

For `COC(=O)c1cc(Cl)ccc1NC(=O)CSc1ncc(S(=O)(=O)c2ccc(Br)cc2)c(=O)[nH]1`, the half-life was found to be 18 min.

`O=C(Nc1ccc(C(=O)Nc2nccs2)cc1)c1ccc2ccccc2c1`: the half-life worked out at 23 min. This half-life and that of the molecule before are within 1.5-fold of each other.

As for `Brc1ccc(-c2csc(N3CCNCC3)n2)cc1`, the half-life was found to be 3.31 min.

`CCOc1ccccc1C(=O)Nc1cccnc1C(=O)Nc1cccc(S(=O)(=O)C(F)(F)F)c1` registered a half-life of more than 30 min.

`CCN1C(=O)c2ccccc2S(=O)c2ccc(NC(=O)Cc3ccc(OC)cc3)cc21` (stereo not given) came in with a half-life of 6.1 min.

For `CNc1oc(-c2cccc3ccccc23)nc1C(=O)OC`, the half-life is more than 30 min.

Molecule `C[C@H]1CN(C(=O)c2nn(C)c3ccccc23)C[C@@H]1c1nc(-c2cccnc2)no1` returned a half-life of 4.4 min.

`CN(C(=O)CSc1nc2c(c(=O)[nH]1)CCCC2)c1ccccc1` gave a half-life of 13 min. Compared with the last molecule, the half-life is about 3-fold higher.

Turning to `COc1cc(N2CCC(N3CCN(C)CC3)CC2)ccc1Nc1ncc(Cl)c(Nc2ccccc2P(C)(C)=O)n1`, the half-life is more than 30 min.

Consider `CC(Nc1nc(N2CCN(S(C)(=O)=O)CC2)nc2ccccc12)c1ccccc1` (stereo not given), for which the half-life amounted to 8.03 min.
